We go through one compound from ChEMBL document CHEMBL4229425, “Discovery and characterization of N-(1,3-dialkyl-1H-indazol-6-yl)-1H-pyrazolo[4,3-b]pyridin-3-amine scaffold as mGlu4 positive allosteric modulators that mitigate CYP1A2 induction liability” (Bioorg Med Chem Lett, 2018).

Data set [1] can be described thus: Unbound brain to plasma concentration ratio in rat at 10 mg/kg, po after 1 hr. Format: ADME, organism-based. Conditions: brain and plasma, read-out: K(p,uu,brain).
In data set [2] the target is T1, Metabotropic glutamate receptor 4 (Homo sapiens, UniProt Q14833). Nature of the data set: Positive allosteric modulation of human mGluR4 expressed in CHO cells co-expressing Gqi5 assessed as increase in glutamate-induced calcium flux at 30 uM preincubated for 2.5 mins followed by glutamate addition by Fluo-4-AM dye based fluorescence assay relative to PHCCC. Format: functional, cell-based. (Calcium flux is commonly read through the fluorescence of an indicator in the cells.)

A short description of data set [3]: Clearance in rat liver microsomes. Format: ADME, microsome. A general note: Liver microsomes are a subcellular fraction often used to study metabolism.
The nature of data set [4]: Drug uptake in rat brain at 10 mg/kg, po after 1 hr. Format: ADME, organism-based. Conditions: read-out: Drug uptake.
Data set [5] deals with T2, CYP1A2 (induction through the aryl hydrocarbon receptor, AhR) (Homo sapiens, UniProt P35869).
T2 sequence (P35869 whole entry): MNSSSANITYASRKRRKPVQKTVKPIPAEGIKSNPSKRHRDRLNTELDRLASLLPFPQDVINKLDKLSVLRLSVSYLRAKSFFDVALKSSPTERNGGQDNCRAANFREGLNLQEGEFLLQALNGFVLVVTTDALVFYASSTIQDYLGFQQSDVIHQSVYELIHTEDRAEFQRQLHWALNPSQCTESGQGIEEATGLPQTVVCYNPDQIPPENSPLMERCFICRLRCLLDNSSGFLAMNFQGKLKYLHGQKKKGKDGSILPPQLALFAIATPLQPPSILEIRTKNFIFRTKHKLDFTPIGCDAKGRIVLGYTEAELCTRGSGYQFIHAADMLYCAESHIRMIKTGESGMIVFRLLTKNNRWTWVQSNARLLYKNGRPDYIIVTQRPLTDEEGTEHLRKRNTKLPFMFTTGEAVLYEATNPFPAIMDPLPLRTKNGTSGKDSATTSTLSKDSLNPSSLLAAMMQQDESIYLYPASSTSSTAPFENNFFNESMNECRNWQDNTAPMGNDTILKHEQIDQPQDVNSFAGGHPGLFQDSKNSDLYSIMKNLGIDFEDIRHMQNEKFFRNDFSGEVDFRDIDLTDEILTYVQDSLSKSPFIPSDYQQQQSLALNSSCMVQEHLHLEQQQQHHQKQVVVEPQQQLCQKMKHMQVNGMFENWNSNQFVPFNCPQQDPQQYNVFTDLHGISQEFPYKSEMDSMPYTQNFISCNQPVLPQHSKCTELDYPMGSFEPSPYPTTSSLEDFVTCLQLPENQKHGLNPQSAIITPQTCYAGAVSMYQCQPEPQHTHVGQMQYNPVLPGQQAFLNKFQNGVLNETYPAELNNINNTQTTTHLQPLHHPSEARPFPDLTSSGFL
The data set can be described thus: Activation of human AhR assessed as induction of CYP1A2 relative to control. Format: ADME. Conditions: read-out: FC.

Data set [6] is described as follows: Fraction unbound in human plasma. Format: ADME, cell-free.
Data set [7] addresses T1, Metabotropic glutamate receptor 4. Nature of the data set: Positive allosteric modulation of human mGluR4 expressed in CHO cells co-expressing Gqi5 assessed as increase in glutamate-induced calcium flux preincubated for 2.5 mins followed by glutamate addition by Fluo-4-AM dye based fluorescence assay. Format: functional, cell-based. The conditions noted are these: read-out: EC50.

The next data set has as its target T3, Cytochrome P450 1A2 (Homo sapiens, UniProt P05177).
T3 sequence (P05177 whole entry): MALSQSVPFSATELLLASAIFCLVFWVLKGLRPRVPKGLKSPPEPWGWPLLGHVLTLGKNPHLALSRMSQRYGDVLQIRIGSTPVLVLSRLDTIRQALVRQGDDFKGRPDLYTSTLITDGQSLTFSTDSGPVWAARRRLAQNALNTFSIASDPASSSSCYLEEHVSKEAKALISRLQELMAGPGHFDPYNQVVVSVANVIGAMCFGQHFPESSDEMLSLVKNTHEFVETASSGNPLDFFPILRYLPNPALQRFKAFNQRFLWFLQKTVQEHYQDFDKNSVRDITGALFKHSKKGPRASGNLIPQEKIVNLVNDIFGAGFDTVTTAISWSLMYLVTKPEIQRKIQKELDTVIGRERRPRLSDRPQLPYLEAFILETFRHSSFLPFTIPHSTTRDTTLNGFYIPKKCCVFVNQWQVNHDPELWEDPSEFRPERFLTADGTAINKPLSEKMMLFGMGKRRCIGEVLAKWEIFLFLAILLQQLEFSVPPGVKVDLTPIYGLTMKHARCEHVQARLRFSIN
Nature of the data set: Inhibition of CYP1A2 in human liver microsomes. Format: ADME.

The subject of the next data set is MDR1 (P-gp). Nature of the data set: Efflux ratio of permeability in MDCK-MDR1 cells. Format: ADME, cell-based, Canis lupus familiaris. The conditions noted are these: dog.
Data set [8] is described as follows: Fraction unbound in rat plasma. Format: ADME, cell-free.
The nature of data set [9]: Plasma concentration in rat at 10 mg/kg, po after 1 hr. Format: ADME, organism-based.
The nature of data set [10]: Brain to plasma partition coefficient, Kp of the compound in rat at 10 mg/kg, po after 1 hr. Format: ADME, organism-based. The conditions noted are these: brain and plasma.

Broadly, the Emax is the size of the effect at its maximum, as opposed to the concentration needed. What is called fraction unbound is the share of the substance not bound to proteins or other matrix. In general, EC50 refers to the concentration giving half of the maximal effect. As a reminder, the IC50 is the concentration that gives 50% inhibition. Usually efflux ratio stands for the permeability from basolateral to apical divided by that in the opposite direction, in the common usage. As a reminder, the Kp is the ratio of the level in a tissue or fluid to that in plasma or blood.

T1 sequence (Q14833 whole entry): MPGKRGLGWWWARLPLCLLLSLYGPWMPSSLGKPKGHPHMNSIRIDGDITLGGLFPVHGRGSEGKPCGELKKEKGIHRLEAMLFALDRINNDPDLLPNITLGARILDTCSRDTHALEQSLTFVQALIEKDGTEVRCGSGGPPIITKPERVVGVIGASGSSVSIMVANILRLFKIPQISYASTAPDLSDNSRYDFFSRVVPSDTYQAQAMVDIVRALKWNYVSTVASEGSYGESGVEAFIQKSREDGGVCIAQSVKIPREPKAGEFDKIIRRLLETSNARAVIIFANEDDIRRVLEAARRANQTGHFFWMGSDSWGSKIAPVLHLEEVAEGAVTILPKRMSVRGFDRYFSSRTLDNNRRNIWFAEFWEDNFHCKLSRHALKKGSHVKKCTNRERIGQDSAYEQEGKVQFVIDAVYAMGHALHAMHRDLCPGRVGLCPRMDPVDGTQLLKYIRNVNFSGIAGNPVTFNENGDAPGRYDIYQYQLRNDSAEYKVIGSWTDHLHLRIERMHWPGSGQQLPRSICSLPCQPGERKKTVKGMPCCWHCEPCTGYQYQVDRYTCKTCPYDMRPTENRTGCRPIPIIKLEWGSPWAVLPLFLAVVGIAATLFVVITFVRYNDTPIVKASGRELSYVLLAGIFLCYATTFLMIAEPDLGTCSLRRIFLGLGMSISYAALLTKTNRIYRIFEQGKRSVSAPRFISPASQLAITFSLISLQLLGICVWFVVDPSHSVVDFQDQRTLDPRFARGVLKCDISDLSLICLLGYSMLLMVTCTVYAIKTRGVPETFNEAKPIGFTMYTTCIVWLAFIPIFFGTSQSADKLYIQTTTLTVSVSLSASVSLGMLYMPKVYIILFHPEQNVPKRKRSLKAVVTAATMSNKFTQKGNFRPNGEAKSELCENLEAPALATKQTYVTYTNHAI

As to `Cn1nc(C2CC2)c2ccc(Nc3n[nH]c4cccnc34)cc21`, the Kp uu at 1 h in [1] is 0.3. In addition, in data set [2], the Emax was determined as 88.7%. Further, the CLhep predicted in data set [3] is 21.5 mL/min/kg. The concentration at 1 h came out at 816 ng/g in [4] and 787 ng/mL in data set [9]. Besides, the fold induction in [5] turned out to be 2.3. Moreover, the fraction unbound in data set [6] is 0.022; in data set [8], 0.024. The EC50 in data set [7] is 43 nM. Moreover, at Cytochrome P450 1A2, half-maximal inhibition (IC50) required 350 nM. The efflux ratio in the data set with MDR1 (P-gp) came out at 1.2. Besides, the Kp at 1 h in data set [10] came to 1.04.
